Assay results taken from ChEMBL document CHEMBL4177730, “Rational modification of semaxanib and sunitinib for developing a tumor growth inhibitor targeting ATP binding site of tyrosine kinase” (2018).
Activity calls are given as the source filed them. The rule behind the calls is not given here.

Columns and labels:
SNB-19 [1] = assay: Growth inhibition of human SNB19 cells at 10 uM after 48 hrs by sulforhodamine B assay; type: functional, cell-based
SNB-19 [2] = assay: Growth inhibition of human SNB19 cells after 48 hrs by sulforhodamine B assay; type: functional; settings: SNB-19, 48 h
SNB-75 [3] = assay: Growth inhibition of human SNB75 cells after 48 hrs by sulforhodamine B assay; type: functional; settings: SNB-75, 48 h
HT-29 [4] = assay: Growth inhibition of human HT-29 cells at 10 uM after 48 hrs by sulforhodamine B assay; type: functional, cell-based
MCF7 = assay: Growth inhibition of human MCF7 cells after 48 hrs by sulforhodamine B assay; type: functional; settings: MCF7, 48 h
SF-295 = assay: Growth inhibition of human SF295 cells at 10 uM after 48 hrs by sulforhodamine B assay; type: functional, cell-based
A549 = assay: Growth inhibition of human A549/ATCC cells after 48 hrs by sulforhodamine B assay; type: functional; settings: A549, 48 h
NCI-H522 = assay: Growth inhibition of human NCI-H522 cells after 48 hrs by sulforhodamine B assay; type: functional; settings: NCI-H522, 48 h
TK-10 = assay: Growth inhibition of human TK10 cells after 48 hrs by sulforhodamine B assay; type: functional; settings: TK-10, 48 h
SW-620 = assay: Growth inhibition of human SW620 cells after 48 hrs by sulforhodamine B assay; type: functional; settings: SW-620, 48 h
MDA-MB-435 [5] = assay: Growth inhibition of human MDA-MB-435 cells at 10 uM after 48 hrs by sulforhodamine B assay; type: functional, cell-based
MOLT-4 [6] = assay: Growth inhibition of human MOLT4 cells after 48 hrs by sulforhodamine B assay; type: functional; settings: MOLT-4, 48 h
IGROV-1 [7] = assay: Growth inhibition of human IGROV1 cells at 10 uM after 48 hrs by sulforhodamine B assay; type: functional, cell-based
MDA-MB-435 [8] = assay: Growth inhibition of human MDA-MB-435 cells after 48 hrs by sulforhodamine B assay; type: functional; settings: MDA-MB-435, 48 h
HOP-92 = assay: Growth inhibition of human HOP92 cells after 48 hrs by sulforhodamine B assay; type: functional; settings: HOP-92, 48 h
SR = assay: Growth inhibition of human SR cells at 10 uM after 48 hrs by sulforhodamine B assay; type: functional, cell-based
IGROV-1 [9] = assay: Growth inhibition of human IGROV1 cells after 48 hrs by sulforhodamine B assay; type: functional; settings: IGROV-1, 48 h
HT-29 [10] = assay: Growth inhibition of human HT-29 cells after 48 hrs by sulforhodamine B assay; type: functional; settings: HT-29, 48 h
BT-549 [11] = assay: Growth inhibition of human BT549 cells at 10 uM after 48 hrs by sulforhodamine B assay; type: functional, cell-based
CAKI-1 = assay: Growth inhibition of human CAKI-1 cells after 48 hrs by sulforhodamine B assay; type: functional; settings: CAKI-1, 48 h
DU-145 = assay: Growth inhibition of human DU145 cells after 48 hrs by sulforhodamine B assay; type: functional; settings: DU-145, 48 h
SK-MEL-5 = assay: Growth inhibition of human SK-MEL-5 cells at 10 uM after 48 hrs by sulforhodamine B assay; type: functional, cell-based
A498 = assay: Growth inhibition of human A498 cells after 48 hrs by sulforhodamine B assay; type: functional; settings: A498, 48 h
BT-549 [12] = assay: Growth inhibition of human BT549 cells after 48 hrs by sulforhodamine B assay; type: functional; settings: BT-549, 48 h
HCT-116 = assay: Growth inhibition of human HCT116 cells after 48 hrs by sulforhodamine B assay; type: functional; settings: HCT-116, 48 h
RPMI-8226 = assay: Growth inhibition of human RPMI8226 cells at 10 uM after 48 hrs by sulforhodamine B assay; type: functional, cell-based
HOP-62 [13] = assay: Growth inhibition of human HOP62 cells after 48 hrs by sulforhodamine B assay; type: functional; settings: HOP-62, 48 h
MOLT-4 [14] = assay: Growth inhibition of human MOLT4 cells at 10 uM after 48 hrs by sulforhodamine B assay; type: functional, cell-based
NCI-H23 = assay: Growth inhibition of human NCI-H23 cells at 10 uM after 48 hrs by sulforhodamine B assay; type: functional, cell-based
NCI/ADR-RES = assay: Growth inhibition of human NCI-ADR-RES cells at 10 uM after 48 hrs by sulforhodamine B assay; type: functional, cell-based
NCI-H226 = assay: Growth inhibition of human NCI-H226 cells after 48 hrs by sulforhodamine B assay; type: functional; settings: NCI-H226, 48 h
LOX IMVI = assay: Growth inhibition of human LOXIMVI cells after 48 hrs by sulforhodamine B assay; type: functional
SNB-75 [15] = assay: Growth inhibition of human SNB75 cells at 10 uM after 48 hrs by sulforhodamine B assay; type: functional, cell-based
Hs-578T [16] = assay: Growth inhibition of human Hs 578T cells at 10 uM after 48 hrs by sulforhodamine B assay; type: functional, cell-based
UACC-62 = assay: Growth inhibition of human UACC62 cells at 10 uM after 48 hrs by sulforhodamine B assay; type: functional, cell-based
Hs-578T [17] = assay: Growth inhibition of human Hs 578T cells after 48 hrs by sulforhodamine B assay; type: functional
HCC 2998 = assay: Growth inhibition of human HCC2998 cells after 48 hrs by sulforhodamine B assay; type: functional; settings: HCC 2998, 48 h
HOP-62 [18] = assay: Growth inhibition of human HOP62 cells at 10 uM after 48 hrs by sulforhodamine B assay; type: functional, cell-based
HCT-15 = assay: Growth inhibition of human HCT15 cells at 10 uM after 48 hrs by sulforhodamine B assay; type: functional, cell-based
[19] = read-out: LC50 (the source's name)

SMILES: O=C1/C(=C\c2cccn2Cc2ccccc2)c2ccccc2N1c1c(Cl)cccc1Cl
- growth inhibition (GI) (SNB-19 [1]): Active
- GI50 (SNB-19 [2]): > 100 µM
- TGI (SNB-19 [2]): > 100 µM
- CC50 (SNB-19 [2]; [19]): > 100 µM
- GI50 (SNB-75 [3]): 5.24 µM
- TGI (SNB-75 [3]): > 100 µM
- CC50 (SNB-75 [3]; [19]): > 100 µM
- growth inhibition (GI) (HT-29 [4]): Active
- GI50 (MCF7): 0.035 µM
- TGI (MCF7): > 100 µM
- CC50 (MCF7; [19]): > 100 µM
- growth inhibition (GI) (SF-295): Active
- GI50 (A549): 8.31 µM
- TGI (A549): > 100 µM
- CC50 (A549; [19]): > 100 µM
- GI50 (NCI-H522): > 100 µM
- TGI (NCI-H522): > 100 µM
- CC50 (NCI-H522; [19]): > 100 µM
- GI50 (TK-10): 0.64 µM
- TGI (TK-10): > 100 µM
- CC50 (TK-10; [19]): > 100 µM
- GI50 (SW-620): > 100 µM
- TGI (SW-620): > 100 µM
- CC50 (SW-620; [19]): > 100 µM
- growth inhibition (GI) (MDA-MB-435 [5]): Active
- GI50 (MOLT-4 [6]): > 100 µM
- TGI (MOLT-4 [6]): > 100 µM
- CC50 (MOLT-4 [6]; [19]): > 100 µM
- growth inhibition (GI) (IGROV-1 [7]): Active
- GI50 (MDA-MB-435 [8]): > 100 µM
- TGI (MDA-MB-435 [8]): > 100 µM
- CC50 (MDA-MB-435 [8]; [19]): > 100 µM
- GI50 (HOP-92): 0.97 µM
- TGI (HOP-92): 17.8 µM
- CC50 (HOP-92; [19]): > 100 µM
- growth inhibition (GI) (SR): Active
- GI50 (IGROV-1 [9]): 0.54 µM
- TGI (IGROV-1 [9]): > 100 µM
- CC50 (IGROV-1 [9]; [19]): > 100 µM
- GI50 (HT-29 [10]): 6.45 µM
- TGI (HT-29 [10]): > 100 µM
- CC50 (HT-29 [10]; [19]): > 100 µM
- growth inhibition (GI) (BT-549 [11]): Active
- GI50 (CAKI-1): 8.31 µM
- TGI (CAKI-1): > 100 µM
- CC50 (CAKI-1; [19]): > 100 µM
- GI50 (DU-145): > 100 µM
- TGI (DU-145): > 100 µM
- CC50 (DU-145; [19]): > 100 µM
- growth inhibition (GI) (SK-MEL-5): Active
- GI50 (A498): > 100 µM
- TGI (A498): > 100 µM
- CC50 (A498; [19]): > 100 µM
- GI50 (BT-549 [12]): > 100 µM
- TGI (BT-549 [12]): > 100 µM
- CC50 (BT-549 [12]; [19]): > 100 µM
- GI50 (HCT-116): 3.38 µM
- TGI (HCT-116): > 100 µM
- CC50 (HCT-116; [19]): > 100 µM
- growth inhibition (GI) (RPMI-8226): Active
- GI50 (HOP-62 [13]): > 100 µM
- TGI (HOP-62 [13]): > 100 µM
- CC50 (HOP-62 [13]; [19]): > 100 µM
- growth inhibition (GI) (MOLT-4 [14]): Active
- growth inhibition (GI) (NCI-H23): Active
- growth inhibition (GI) (NCI/ADR-RES): Active
- GI50 (NCI-H226): 6.16 µM
- TGI (NCI-H226): > 100 µM
- CC50 (NCI-H226; [19]): > 100 µM
- GI50 (LOX IMVI): > 100 µM
- TGI (LOX IMVI): > 100 µM
- CC50 (LOX IMVI; [19]): > 100 µM
- growth inhibition (GI) (SNB-75 [15]): Active
- growth inhibition (GI) (Hs-578T [16]): Active
- growth inhibition (GI) (UACC-62): Active
- GI50 (Hs-578T [17]): > 100 µM
- TGI (Hs-578T [17]): > 100 µM
- CC50 (Hs-578T [17]; [19]): > 100 µM
- GI50 (HCC 2998): 0.87 µM
- TGI (HCC 2998): > 100 µM
- CC50 (HCC 2998; [19]): > 100 µM
- growth inhibition (GI) (HOP-62 [18]): Active
- growth inhibition (GI) (HCT-15): Active
